Measurements published in patent US10131679B2, “Substituted dihydropyrrolopyrazole compound” (UBE INDUSTRIES, LTD., priority 2014, dated 2018).

Key:
[1] = test system: mouse imiquimod-induced psoriasis model; assay: Ear thickening suppression test using mouse imiquimod-induced psoriasis model; format: in vivo; details: topical, 120 h, thickness measured on day 5, BALB/c mice, read-out: rate of inhibition of increase in right auricle thickness; for inhibition in vivo at 1 %: application of a 1% solution in methanol for 4 days; for inhibition in vivo at 0.01 %: application of a 0.01% methanol solution for 4 days
Protocol: Ear Thickening Suppression Test Using Mouse Imiquimod-Induced Psoriasis Model
An imiquimod-induced psoriasis model test was carried out by modifying the method of Leslie van der Fits et al. (J. Immunol. 182, 5836 (2009)). BALB/c mice were used (female, supplied by Charles River Laboratories Japan, Inc.) as laboratory animals. On the start day of the test, the thicknesses of the right auricles of the mice were measured with a thickness gauge (model SMD-565J manufactured by TECLOCK Corp.). A test compound solution or only a solvent was applied or orally administered, and after 60 minutes, 5 mg of imiquimod (Beselna Cream 5% manufactured by Mochida Pharmaceutical Co., Ltd.) was applied to the insides of the right auricles. The test compound solution or solvent administration and the imiquimod application were carried out for 4 days, and the thicknesses of the right auricles were measured again on day 5. When increase in the thicknesses of the right auricles of the solvent-administered group on day 5 was defined as 100%, the rate of inhibition of increase (%) at each dose of the test compound was calculated.

PAK4 = target: T1, PAK4 (Homo sapiens, UniProt O96013); assay: PAK4 enzyme inhibition test; format: biochemical; details: Ki=IC50/(1+S/Km); 33P bound to MBP, [γ-33P]ATP, 30° C. for 20 minutes; read-out: Ki value of PAK4 inhibitory activity
T1 construct: purchased Invitrogen Corp. PV4212
T1 sequence (O96013 whole entry): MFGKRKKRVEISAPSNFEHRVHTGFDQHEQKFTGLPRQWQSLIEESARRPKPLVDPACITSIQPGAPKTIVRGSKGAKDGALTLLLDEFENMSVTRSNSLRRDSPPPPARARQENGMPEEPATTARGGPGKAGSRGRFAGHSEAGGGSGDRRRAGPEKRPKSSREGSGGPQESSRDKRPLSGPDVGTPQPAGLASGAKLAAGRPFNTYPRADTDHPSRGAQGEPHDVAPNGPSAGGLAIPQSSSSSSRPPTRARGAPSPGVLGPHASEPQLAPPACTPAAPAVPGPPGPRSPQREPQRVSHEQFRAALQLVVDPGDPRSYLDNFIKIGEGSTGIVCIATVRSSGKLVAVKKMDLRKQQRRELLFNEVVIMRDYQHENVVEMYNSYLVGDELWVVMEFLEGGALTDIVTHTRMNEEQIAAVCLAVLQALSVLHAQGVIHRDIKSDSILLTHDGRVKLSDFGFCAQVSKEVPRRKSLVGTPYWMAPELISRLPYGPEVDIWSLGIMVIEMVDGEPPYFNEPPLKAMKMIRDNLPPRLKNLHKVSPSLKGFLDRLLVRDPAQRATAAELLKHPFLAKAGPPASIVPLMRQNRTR
Protocol: PAK4 Enzyme Inhibition Test
The preparation of a buffer solution was performed by mixing a trishydroxyaminomethane buffer solution (Tris buffer solution) (pH 7.5), DTT, Triton X-100, MgCl2, ethylene glycol bis(β-aminoethyl ether)-N,N,N′,N′-tetraacetic acid (EGTA), (3-glycerol phosphate, and sodium orthovanadate(V). A 40 μM [γ-^33P]ATP solution was used by diluting a 10 mM ATP solution and a commercially available [γ-^33P]ATP solution (manufactured by PerkinElmer, Inc., Code No. NEG-302H) with the buffer solution. A PAK4 solution was used by diluting commercially available PAK4 (manufactured by Invitrogen Corp., Catalog No. PV4212) with the buffer solution. A substrate solution was used by diluting MBP with the buffer solution. As for the preparation of a reaction solution, the buffer solution, the 40 μM [γ-^33P]ATP solution, the PAK4 solution, and the substrate solution were mixed at 4° C. to obtain a reaction solution.
(§1) PAK4 enzyme reaction was performed by adding 5 μL of a test compound solution prepared with 10% DMSO/90% injectable distilled water, and 45 μL of the reaction solution in a 1.5 mL microtube at 4° C. and reacting in the microtube at 30° C. for 20 minutes in a water bath incubator. After the reaction, a 10% aqueous TCA solution was added to each microtube while cooled to 4° C., and mixed to terminate the reaction. The resultant was left standing at 4° C. for 10 minutes and then centrifuged in a centrifuge, and the supernatant was discarded. Next, a 2% aqueous TCA solution was added, mixed, and then centrifuged in a centrifuge, and the supernatant was discarded. This washing operation was performed twice. After the washing, precipitates were dissolved in a 1 N aqueous NaOH solution, and the radioactivity was measured with a liquid scintillation counter.
The calculation of the inhibitory activity of the test compound against PAK4 was performed as a test compound concentration inhibiting 50% of the amount of ^33P bound to MBP (IC50 value) by using EXSUS (version 8.0.0 or version 8.0.1, manufactured by CAC Exicare Corp.).
(§2) The calculation of a Ki value was performed according to the following calculation expression. S means the concentration of ATP contained in the reaction solution, and Km means a Michaelis-Menten constant. Ki=IC50/(1+S/Km)

CDK7 = target: T2, CDK7 (Homo sapiens, UniProt P50613); assay: CDK7 enzyme inhibition test; format: biochemical; details: Ki=IC50/(1+S/Km); 33P bound to MBP, [γ-33P]ATP, 30° C. for 20 minutes; read-out: Ki value of CDK7 inhibitory activity
T2 construct: purchased Carna Biosciences, Inc. 04-108
T2 sequence (P50613 whole entry): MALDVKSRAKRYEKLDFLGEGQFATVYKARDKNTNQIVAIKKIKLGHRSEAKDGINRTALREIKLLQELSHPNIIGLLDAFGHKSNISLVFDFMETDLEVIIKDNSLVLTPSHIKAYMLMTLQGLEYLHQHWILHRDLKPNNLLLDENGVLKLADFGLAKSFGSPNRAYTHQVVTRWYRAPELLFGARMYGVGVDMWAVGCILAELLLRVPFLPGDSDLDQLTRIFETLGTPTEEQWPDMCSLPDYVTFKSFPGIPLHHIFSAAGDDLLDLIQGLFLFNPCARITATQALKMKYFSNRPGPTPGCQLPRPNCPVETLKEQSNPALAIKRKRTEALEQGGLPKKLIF
T2 sequence (P51946 whole entry partner): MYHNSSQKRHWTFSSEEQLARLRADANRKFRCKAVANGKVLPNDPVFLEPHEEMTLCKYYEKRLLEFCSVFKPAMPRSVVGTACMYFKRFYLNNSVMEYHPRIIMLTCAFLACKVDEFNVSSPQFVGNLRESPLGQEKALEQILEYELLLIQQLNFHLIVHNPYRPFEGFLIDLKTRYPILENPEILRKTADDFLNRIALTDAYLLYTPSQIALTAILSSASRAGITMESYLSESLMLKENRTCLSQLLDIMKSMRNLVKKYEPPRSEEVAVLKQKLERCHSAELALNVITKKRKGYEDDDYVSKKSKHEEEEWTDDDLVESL
T2 sequence (P51948 whole entry partner): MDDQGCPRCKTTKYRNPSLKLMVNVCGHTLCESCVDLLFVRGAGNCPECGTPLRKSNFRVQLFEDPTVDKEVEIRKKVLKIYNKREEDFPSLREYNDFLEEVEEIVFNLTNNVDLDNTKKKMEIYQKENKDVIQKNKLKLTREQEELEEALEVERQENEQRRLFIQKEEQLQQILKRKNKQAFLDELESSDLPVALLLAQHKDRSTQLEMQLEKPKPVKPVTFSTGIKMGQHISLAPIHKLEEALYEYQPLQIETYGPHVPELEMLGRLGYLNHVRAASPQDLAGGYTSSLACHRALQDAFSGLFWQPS
Procedure, shortened: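 Recombinant CDK7 with MBP substrate and [γ-33P]ATP (500 μM solution, diluted into the mix) in HEPES pH 7.4/DTT/Triton X-100/MgCl2, 20 min at 30 °C. TCA-precipitated 33P-MBP counted by scintillation; IC50 from inhibition, Ki = IC50/(1+S/Km).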

CDK2 = target: T3, CDK2 (Homo sapiens, UniProt P24941); assay: CDK2 enzyme inhibition test; format: biochemical; details: Ki=IC50/(1+S/Km); 33P bound to MBP, [γ-33P]ATP, 30° C. for 20 minutes; read-out: Ki value of CDK2 inhibitory activity
T3 construct: purchased Invitrogen Corp. PV3267
Protocol: CDK2 Enzyme Inhibition Test
The preparation of a buffer solution was performed by mixing a HEPES buffer solution (pH 7.4), DTT, Triton X-100, and MgCl2. A 500 μM [γ-^33P]ATP solution was used by diluting a 10 mM ATP solution and a commercially available [γ-^33P]ATP solution (manufactured by PerkinElmer, Inc., Code No. NEG-302H) with the buffer solution. A CDK2 solution was used by diluting commercially available CDK2 (manufactured by Invitrogen Corp., Catalog No. PV3267) with the buffer solution. A substrate solution was used by diluting MBP with the buffer solution. As for the preparation of a reaction solution, the buffer solution, the 500 μM [γ-^33P]ATP solution, the CDK2 solution, and the substrate solution were mixed at 4° C. to obtain a reaction solution.
as §1, with “CDK2” for “PAK4”, “mixed thereto,” for “mixed,”
The calculation of the inhibitory activity of the test compound against CDK2 was performed as a test compound concentration inhibiting 50% of the amount of ^33P bound to MBP (IC50 value) by using EXSUS (version 8.0.0 or version 8.0.1, manufactured by CAC Exicare Corp.).
as §2

[2] = test system: human large intestine cancer cell line (HCT-116); assay: Human large intestine cancer (HCT-116) cell growth inhibition test; format: cell-based; details: 72 h, HCT-116, culture for 3 days, sulforhodamine B absorbance
Procedure, shortened: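 HCT-116 cells seeded at 1.0×10^3 cells/well in McCoy's 5a with 10% FBS, then exposed to compound (0.1% DMSO final) for 3 days. Growth measured by sulforhodamine B absorbance; IC50 derived from concentration-inhibition data.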

Compound | inhibition in vivo at 1 % [1] | other results
CC(C)(C)C(=O)OC[C@@H](NC(=O)N1Cc2c(NC(=O)C3([Si](C)(C)C)CCC3)n[nH]c2C1(C)C)c1ccccc1 [V-1462, (S)-2-{6,6-Dimethyl-3-[1-(trimethylsilyl)cyclobutanecarboxamido]-1,4,5,6-tetrahydropyrrolo[3,4-c]pyrazole-5-carboxamido}-2-phenylethyl pivalate] | ≥ 50% | 
COCC(C)(C)C(NC(=O)N1Cc2c(NC(=O)C3([Si](C)(C)C)CCC3)n[nH]c2C1(C)C)c1ccccc1 (stereo not drawn) [IV-676, N-(3-Methoxy-2,2-dimethyl-1-phenylpropyl)-6,6-dimethyl-3-[1-(trimethylsilyl)cyclobutanecarboxamido]-4,6-dihydropyrrolo[3,4-c]pyrazole-5(1H)-carboxamide] |  | inhibition in vivo at 0.01 % [1]: ≥ 50%
CCC(=O)OC[C@@H](NC(=O)N1Cc2c(NC(=O)C3([Si](C)(C)C)CCC3)n[nH]c2C1(C)C)c1ccccc1 [V-1446, (S)-2-{6,6-Dimethyl-3-[1-(trimethylsilyl)cyclobutanecarboxamido]-1,4,5,6-tetrahydropyrrolo[3,4-c]pyrazole-5-carboxamido}-2-phenylethyl propionate] | ≥ 50% | 
CCCCCCCC(=O)OC[C@@H](NC(=O)N1Cc2c(NC(=O)C3([Si](C)(C)C)CCC3)n[nH]c2C1(C)C)c1ccccc1 [V-1470, (S)-2-{6,6-Dimethyl-3-[1-(trimethylsilyl)cyclobutanecarboxamido]-1,4,5,6-tetrahydropyrrolo[3,4-c]pyrazole-5-carboxamido}-2-phenylethyl octanoate] | ≥ 50% | 
CC(C)C(=O)OC[C@@H](NC(=O)N1Cc2c(NC(=O)C3([Si](C)(C)C)CCC3)n[nH]c2C1(C)C)c1ccccc1 [V-1454, (S)-2-{6,6-Dimethyl-3-[1-(trimethylsilyl)cyclobutanecarboxamido]-1,4,5,6-tetrahydropyrrolo[3,4-c]pyrazole-5-carboxamido}-2-phenylethyl isobutanoate] | ≥ 50% | 
CCCCCCCCCCCC(=O)OC[C@@H](NC(=O)N1Cc2c(NC(=O)C3([Si](C)(C)C)CCC3)n[nH]c2C1(C)C)c1ccccc1 [V-1474, (S)-2-{6,6-Dimethyl-3-[1-(trimethylsilyl)cyclobutanecarboxamido]-1,4,5,6-tetrahydropyrrolo[3,4-c]pyrazole-5-carboxamido}-2-phenylethyl dodecanoate] | ≥ 50% | 
CC(=O)OC[C@@H](NC(=O)N1Cc2c(NC(=O)C3([Si](C)(C)C)CCC3)n[nH]c2C1(C)C)c1ccccc1 [V-1442, (S)-2-{6,6-Dimethyl-3-[1-(trimethylsilyl)cyclobutanecarboxamido]-1,4,5,6-tetrahydropyrrolo[3,4-c]pyrazole-5-carboxamido}-2-phenylethyl acetate] | ≥ 50% | 
CCCCO[C@@H](C(=O)N1Cc2c(NC(=O)C3([Si](C)(C)C)CCC3)n[nH]c2C1(C)C)c1ccccc1 [IV-1200, (R)—N-[5-(2-Butoxy-2-phenylacetyl)-6,6-dimethyl-1,4,5,6-tetrahydropyrrolo[3,4-c]pyrazol-3-yl]-1-(trimethylsilyl)cyclobutanecarboxamide] |  | inhibition in vivo at 0.01 % [1]: ≥ 50%
C[C@@H](Oc1ccccc1)C(=O)N1Cc2c(NC(=O)C3([Si](C)(C)C)CCC3)n[nH]c2C1(C)C [IV-1258, (R)—N-[6,6-Dimethyl-5-(2-phenoxypropanoyl)-1,4,5,6-tetrahydropyrrolo[3,4-c]pyrazol-3-yl]-1-(trimethylsilyl)cyclobutanecarboxamide] |  | Ki (PAK4): ≥ 500 nM; Ki (CDK7): ≤ 50 nM; Ki (CDK2): ≥ 1000 nM; IC50 [2]: ≤ 500 nM
